This is an account of results in article PMC5464333, “The binding orientations of structurally-related ligands can differ; A cautionary note” (Neuropharmacology, 2017).

For experiment [1], the target named is α7 nACh receptor. The following applies: α7 nACh receptors; ref Macor et al. (2001); cited from earlier work.
In experiment [2] the target is T1, 5-HT3A receptor P155C mutant (Homo sapiens, UniProt P46098, P150C).
T1 construct: expressed in transfected cells; host or cells: HEK293, transient, pcDNA3.1
T1 sequence (P46098 24-478 P150C): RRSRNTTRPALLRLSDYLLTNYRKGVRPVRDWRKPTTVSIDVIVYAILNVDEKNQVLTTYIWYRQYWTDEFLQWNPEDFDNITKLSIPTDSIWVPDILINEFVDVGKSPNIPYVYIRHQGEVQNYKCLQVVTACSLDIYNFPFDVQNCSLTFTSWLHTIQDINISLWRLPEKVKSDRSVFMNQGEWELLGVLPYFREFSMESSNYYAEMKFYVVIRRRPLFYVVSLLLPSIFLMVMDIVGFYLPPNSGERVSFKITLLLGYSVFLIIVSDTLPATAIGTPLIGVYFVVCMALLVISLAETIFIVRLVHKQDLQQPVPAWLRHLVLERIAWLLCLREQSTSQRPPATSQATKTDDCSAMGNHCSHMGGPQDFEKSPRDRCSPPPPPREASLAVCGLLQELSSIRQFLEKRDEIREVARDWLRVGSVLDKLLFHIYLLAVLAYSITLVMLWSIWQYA
Description: Saturation radioligand binding, 5-HT3A P155C mutant. The following applies: P155C versus wild type. The protocol:
(§1) Mutagenesis was performed using the QuikChange method (Agilent Technologies Inc., California, USA). Cysteine residues were substituted for amino acids throughout each of the binding loops A - E (Fig. 1). To facilitate comparisons with previous work, we have used the numbering of the equivalent residues in the mouse 5-HT3A subunit (Q6J1J7).
(§2) Human 5-HT3A subunit cDNA (Accession: P46098, kindly provided by J. Peters, Dundee University, UK) was cloned into pcDNA3.1 for expression in HEK293 cells. […] Cells were transiently transfected with either of these cDNA constructs using polyethyleneimine (PEI: 25 kDa, linear, powder, Polysciences Inc., Eppelheim, Germany). 30 μl of PEI (1 mg ml^−1), 5 μg cDNA and 1 ml DMEM were incubated for 10 min at room temperature, added drop wise to a 90 mm plate of 70–80% conﬂuent HEK293 cells, and incubated for 2–3 days before use.
(§3) Transfected HEK 293 cells were scraped into 0.6 ml of ice-cold 10 mM HEPES buffer (pH 7.4) and frozen. […] Radioactivity was measured by scintillation in Ultima Gold XR (Perkin Elmer, Waltham, MA) using a Tri-Carb 2100 TR (PerkinElmer) scintillation counter. Final counts were monitored to ensure that binding never exceeded 10% of the added concentrations of radioligands.
(§4) All data were analysed using GraphPad Prism v5. […]

The target of experiment [3] is α7 nACh receptor (UniProt P22770+P23979, M226I/T225I). The following applies: α7 nACh receptors. The protocol:
as §2
Transfected HEK 293 cells were scraped into 0.6 ml of ice-cold 10 mM HEPES buffer (pH 7.4) and frozen. After thawing, they were washed with HEPES buffer, homogenised by trituration through a 25 gauge (0.5 mm) needle, and 50 μg of cell suspension incubated in 0.5 ml HEPES buffer containing different concentrations of radioligand. […] Equilibrium reactions were incubated on ice for at least 1 h and terminated by vacuum filtration onto Whatman GF/B filters wetted with 0.3% polyethyleneimine, followed by two rapid washes with 2.5 ml ice cold buffer. Radioactivity was measured by scintillation in Ultima Gold XR (Perkin Elmer, Waltham, MA) using a Tri-Carb 2100 TR (PerkinElmer) scintillation counter. Final counts were monitored to ensure that binding never exceeded 10% of the added concentrations of radioligands.
All data were analysed using GraphPad Prism v5. Individual saturation binding experiments were fitted to the equation below and the fitted values averaged to yield mean ± sem of n independent experiments: y=[…] where Bmax is maximum binding at equilibrium, Kd is the equilibrium dissociation constant and [L] is the free concentration of radioligand. Affinities were compared using 1-way ANOVA and a Dunnett's Post-Test.

Experiment [4] has as its target α7 nACh receptor. The following applies: low potency agonist, cited from earlier work.
Experiment [5] has as its target T2, 5-HT3A receptor I71C mutant (Homo sapiens, UniProt P46098, I66C).
T2 construct: expressed in transfected cells; host or cells: HEK293, transient, pcDNA3.1
T2 sequence (P46098 24-478 I66C): T1 sequence (P46098 24-478 P150C) with I43C, C127P
The experiment is described as follows: Saturation radioligand binding, 5-HT3A I71C mutant. The following applies: I71C versus wild type. The protocol: as §1, §2, §3, §4

Experiment [6] deals with T3, 5-HT3A receptor R92C mutant (Homo sapiens, UniProt P46098, R87C).
T3 construct: expressed in transfected cells; host or cells: HEK293, transient, pcDNA3.1
T3 sequence (P46098 24-478 R87C): T1 sequence (P46098 24-478 P150C) with R64C, C127P
Description: Saturation radioligand binding, 5-HT3A R92C mutant. The following applies: R92C versus wild type. The protocol: as §1, §2, §3, §4

Residue numbers refer to the chain shown, from its start. pEC50, pKi: −log10 of the molar value. Read-outs that look alike come from different tables or passages of the source.

Broadly, the pKi is the negative decadic logarithm of the Ki, by convention in mol/L. A word on the pEC50: it is −log10 of the EC50, conventionally taken in molar units.

Sequence of α7 nACh receptor (UniProt P22770+P23979, M226I/T225I) (P22770+P23979 fused P22770:T225I/P22770:M226I): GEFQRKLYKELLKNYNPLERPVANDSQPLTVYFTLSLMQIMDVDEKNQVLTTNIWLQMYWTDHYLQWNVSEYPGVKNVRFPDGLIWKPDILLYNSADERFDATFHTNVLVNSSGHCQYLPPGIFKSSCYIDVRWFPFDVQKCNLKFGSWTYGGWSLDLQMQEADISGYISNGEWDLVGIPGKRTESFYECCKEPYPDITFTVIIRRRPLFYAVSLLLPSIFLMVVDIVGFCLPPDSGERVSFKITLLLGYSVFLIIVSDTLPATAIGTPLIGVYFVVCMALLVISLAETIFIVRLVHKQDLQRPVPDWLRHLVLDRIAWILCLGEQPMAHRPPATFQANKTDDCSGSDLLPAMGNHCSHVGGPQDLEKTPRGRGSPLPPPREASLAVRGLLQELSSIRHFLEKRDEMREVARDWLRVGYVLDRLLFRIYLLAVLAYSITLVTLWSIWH

With `CN1[C@@H]2CC[C@H]1C[C@@H](OC(=O)c1c[nH]c3ccccc13)C2` [tropisetron, Tropisetron], the negative logarithm of the Ki (pKi) at α7 nACh receptor [1] is 8.16. The same compound showed a decrease in affinity in experiment [2] of 5 fold. Moreover, the saturation binding entry on α7 nACh receptor [3] was “undetectable”. Further, the negative-log EC50 (pEC50) was 5.89 on α7 nACh receptor [4] (ref Macor et al., 2001) and 6.22 on α7 nACh receptor [4] (ref Papke et al., 2005). Besides, the change in affinity in experiment [5] is on record as 1.9 fold. Besides, the reduction in affinity in experiment [6] is on record as 2.5 fold.
